# Measurements: paper PMC4259467, “Molecular Cloning, Characterization and Positively Selected Sites of the Glutathione S-Transferase Family from Locusta migratoria” (PLoS ONE, 2014)
# How the values were obtained:
# Assay in all cases: spectrophotometric GST assay, steady state
# Assay type in all cases: biochemical
# Conditions in all cases: co-substrate GSH; pH and temperature not given; read-out: K m ^CDNB
# LmGSTS9 = biological target: T1, LmGSTS9 (Locusta migratoria, UniProt V9Q315)
# T1 construct: gene GSTs9; full-length ORF in pET28a, E. coli BL21(DE3), His-tag Ni-NTA purified
# T1 sequence (V9Q315 1-204): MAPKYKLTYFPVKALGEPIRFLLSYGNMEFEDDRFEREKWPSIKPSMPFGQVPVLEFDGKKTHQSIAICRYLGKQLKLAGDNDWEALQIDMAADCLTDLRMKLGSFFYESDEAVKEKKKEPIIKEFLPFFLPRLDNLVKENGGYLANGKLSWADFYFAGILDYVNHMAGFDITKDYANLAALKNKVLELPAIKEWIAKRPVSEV
# Excerpt: spectrophotometric GST assay, steady state on LmGSTS9
# LmGSTS7 = biological target: T2, LmGSTS7 (Locusta migratoria, UniProt F4YUJ6)
# T2 construct: full-length ORF in pET28a, E. coli BL21(DE3), His-tag Ni-NTA purified
# T2 sequence (F4YUJ6 1-204): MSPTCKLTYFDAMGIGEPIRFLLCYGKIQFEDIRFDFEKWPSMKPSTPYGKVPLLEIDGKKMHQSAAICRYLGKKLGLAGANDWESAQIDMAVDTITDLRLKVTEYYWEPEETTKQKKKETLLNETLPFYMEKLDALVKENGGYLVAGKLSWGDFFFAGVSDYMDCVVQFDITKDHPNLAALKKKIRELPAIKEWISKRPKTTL
# Excerpt: spectrophotometric GST assay, steady state on LmGSTS7
# LmGSTD3 = biological target: T3, LmGSTD3 (Locusta migratoria, UniProt V9Q4H6)
# T3 construct: gene GSTd3; full-length ORF in pET28a, E. coli BL21(DE3), His-tag Ni-NTA purified
# T3 sequence (V9Q4H6 1-222): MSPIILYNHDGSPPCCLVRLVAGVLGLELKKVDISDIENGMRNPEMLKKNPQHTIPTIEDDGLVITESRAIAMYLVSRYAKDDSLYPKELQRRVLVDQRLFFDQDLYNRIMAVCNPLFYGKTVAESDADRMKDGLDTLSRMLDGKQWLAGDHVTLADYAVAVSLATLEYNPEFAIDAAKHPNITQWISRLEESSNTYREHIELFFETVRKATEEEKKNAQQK
# Excerpt: spectrophotometric GST assay, steady state on LmGSTD3
# LmGSTS8 = biological target: T4, LmGSTS8 (Locusta migratoria, UniProt V9Q487)
# T4 construct: gene GSTs8; full-length ORF in pET28a, E. coli BL21(DE3), His-tag Ni-NTA purified
# T4 sequence (V9Q487 1-204): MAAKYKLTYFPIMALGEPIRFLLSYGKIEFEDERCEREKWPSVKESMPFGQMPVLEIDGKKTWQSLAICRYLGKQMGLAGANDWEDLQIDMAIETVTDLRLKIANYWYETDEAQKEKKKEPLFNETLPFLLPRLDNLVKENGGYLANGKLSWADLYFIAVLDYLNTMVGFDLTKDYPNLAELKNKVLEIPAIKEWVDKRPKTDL
# Excerpt: spectrophotometric GST assay, steady state on LmGSTS8
# LmGSTZ1 = biological target: T5, LmGSTZ1 (Locusta migratoria, UniProt V9Q4A6)
# T5 construct: gene GSTz1; full-length ORF in pET28a, E. coli BL21(DE3), His-tag Ni-NTA purified
# T5 sequence (V9Q4A6 1-217): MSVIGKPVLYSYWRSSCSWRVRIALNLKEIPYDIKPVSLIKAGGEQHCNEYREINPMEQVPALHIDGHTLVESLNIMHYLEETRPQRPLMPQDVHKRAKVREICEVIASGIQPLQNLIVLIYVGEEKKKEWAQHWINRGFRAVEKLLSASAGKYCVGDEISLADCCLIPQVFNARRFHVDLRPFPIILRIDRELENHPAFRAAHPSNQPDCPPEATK
# Excerpt: spectrophotometric GST assay, steady state on LmGSTZ1
# LmGSTT2 = biological target: T6, LmGSTT2 (Locusta migratoria, UniProt V9Q331)
# T6 construct: gene GSTt2; full-length ORF in pET28a, E. coli BL21(DE3), His-tag Ni-NTA purified
# T6 sequence (V9Q331 1-231): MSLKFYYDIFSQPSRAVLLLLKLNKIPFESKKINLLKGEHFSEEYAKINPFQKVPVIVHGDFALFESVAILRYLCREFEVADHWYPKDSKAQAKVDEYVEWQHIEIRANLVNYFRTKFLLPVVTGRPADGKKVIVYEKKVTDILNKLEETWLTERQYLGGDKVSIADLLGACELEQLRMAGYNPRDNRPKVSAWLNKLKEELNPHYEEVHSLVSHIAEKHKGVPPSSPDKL
# Excerpt: spectrophotometric GST assay, steady state on LmGSTT2
# LmGSTE1 = biological target: T7, LmGSTE1 (Locusta migratoria, UniProt V9Q4G7)
# T7 construct: gene GSTe1; full-length ORF in pET28a, E. coli BL21(DE3), His-tag Ni-NTA purified
# T7 sequence (V9Q4G7 1-222): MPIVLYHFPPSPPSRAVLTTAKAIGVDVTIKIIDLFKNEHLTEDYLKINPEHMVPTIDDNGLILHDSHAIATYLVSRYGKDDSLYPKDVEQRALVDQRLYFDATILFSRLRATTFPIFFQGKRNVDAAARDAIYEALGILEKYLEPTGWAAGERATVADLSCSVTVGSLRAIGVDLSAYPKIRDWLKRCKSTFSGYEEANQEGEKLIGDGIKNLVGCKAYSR
# Excerpt: spectrophotometric GST assay, steady state on LmGSTE1
# LmGSTT1 = biological target: T8, LmGSTT1 (Locusta migratoria, UniProt F4YUJ7)
# T8 construct: full-length ORF in pET28a, E. coli BL21(DE3), His-tag Ni-NTA purified
# T8 sequence (F4YUJ7 1-231): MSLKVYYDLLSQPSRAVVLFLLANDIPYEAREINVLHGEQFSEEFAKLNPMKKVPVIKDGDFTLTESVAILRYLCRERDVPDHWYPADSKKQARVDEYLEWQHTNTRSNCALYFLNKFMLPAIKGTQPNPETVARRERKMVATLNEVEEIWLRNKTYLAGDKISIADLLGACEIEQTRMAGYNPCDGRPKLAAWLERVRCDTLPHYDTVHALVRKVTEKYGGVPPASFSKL
# Excerpt: spectrophotometric GST assay, steady state on LmGSTT1
# LmGSTO2 = biological target: T9, LmGSTO2 (Locusta migratoria, UniProt I3QKS2)
# T9 construct: gene GSTo2; full-length ORF in pET28a, E. coli BL21(DE3), His-tag Ni-NTA purified
# T9 sequence (I3QKS2 1-245): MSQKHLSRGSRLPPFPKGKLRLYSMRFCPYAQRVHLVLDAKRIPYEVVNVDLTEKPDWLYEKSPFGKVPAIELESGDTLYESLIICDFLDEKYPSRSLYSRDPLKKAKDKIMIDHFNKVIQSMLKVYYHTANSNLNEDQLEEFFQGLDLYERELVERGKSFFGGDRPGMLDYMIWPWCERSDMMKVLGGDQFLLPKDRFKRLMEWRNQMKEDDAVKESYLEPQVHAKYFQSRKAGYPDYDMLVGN
# Excerpt: spectrophotometric GST assay, steady state on LmGSTO2
# LmGSTD4 = biological target: T10, LmGSTD4 (Locusta migratoria, UniProt V9Q2Q3)
# T10 construct: gene GSTd4; full-length ORF in pET28a, E. coli BL21(DE3), His-tag Ni-NTA purified
# T10 sequence (V9Q2Q3 1-218): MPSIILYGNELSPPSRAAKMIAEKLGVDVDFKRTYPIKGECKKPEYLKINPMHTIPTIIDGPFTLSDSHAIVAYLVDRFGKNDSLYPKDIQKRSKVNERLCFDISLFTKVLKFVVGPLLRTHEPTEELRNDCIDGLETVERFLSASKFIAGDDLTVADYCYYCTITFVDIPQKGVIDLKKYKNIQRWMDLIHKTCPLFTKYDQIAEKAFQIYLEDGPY
# Excerpt: spectrophotometric GST assay, steady state on LmGSTD4
structure (smiles),measurement,setting,value
O=[N+]([O-])c1ccc(Cl)c([N+](=O)[O-])c1 [CDNB],Km,LmGSTS9,351 ± 26 µM
same,Km,LmGSTS7,46 ± 1 µM
same,Km,LmGSTD3,102 ± 10 µM
same,Km,LmGSTS8,100 ± 6 µM
same,Km,LmGSTZ1,452 ± 58 µM
same,Km,LmGSTT2,393 ± 49 µM
same,Km,LmGSTE1,7 ± 1 µM
same,Km,LmGSTT1,260 ± 14 µM
same,Km,LmGSTO2,841 ± 138 µM
same,Km,LmGSTD4,15 ± 2 µM
